Measurements published in US11083725B2 (priority 2014, dated 2021).

Test system: NHBE cells
Assay: Biolog metabolic array: substrate use by NHBE cells with or without CA09 infection
Format: cell-based, human
Details: for Substrate use, 590 nm absorbance normalized to zero hour, 1 hr: Biolog PMM2, 1 hr; for Substrate use, 590 nm absorbance normalized to zero hour, 5 hr: Biolog PMM2, 5 hr; for Substrate use, 590 nm absorbance normalized to zero hour, 7 hr: Biolog PMM2, 7 hr
[1] = Control (uninfected) NHBE cells
[2] = Virus (CA09-infected, MOI 1) NHBE cells
[3] = Virus: CA09-infected NHBE cells, MOI 1, Biolog PMM2
[4] = Virus (CA09-infected NHBE cells, MOI 1)

SMILES | 590 nm absorbance normalized to zero hour (substrate use), 1 hr [1] | 590 nm absorbance normalized to zero hour (substrate use), 3 hr [1] | 590 nm absorbance normalized to zero hour (substrate use), 4 hr [1] | 590 nm absorbance normalized to zero hour (substrate use), 6 hr [1] | 590 nm absorbance normalized to zero hour (substrate use), 8 hr [1] | 590 nm absorbance normalized to zero hour (substrate use), 9 hr [1] | 590 nm absorbance normalized to zero hour (substrate use), 10 hr [1] | 590 nm absorbance normalized to zero hour (substrate use), 11 hr [1] | Substrate use, 590 nm absorbance normalized to zero hour, 1 hr [1] | Substrate use, 590 nm absorbance normalized to zero hour, 5 hr [1] | Substrate use, 590 nm absorbance normalized to zero hour, 7 hr [1] | 590 nm absorbance normalized to zero hour (substrate use), 1 hr [3] | 590 nm absorbance normalized to zero hour (substrate use), 2 hr [3] | 590 nm absorbance normalized to zero hour (substrate use), 3 hr [3] | 590 nm absorbance normalized to zero hour (substrate use), 4 hr [3] | 590 nm absorbance normalized to zero hour (substrate use), 5 hr [3] | 590 nm absorbance normalized to zero hour (substrate use), 6 hr [3] | 590 nm absorbance normalized to zero hour (substrate use), 7 hr [3] | 590 nm absorbance normalized to zero hour (substrate use), 8 hr [3] | 590 nm absorbance normalized to zero hour (substrate use), 9 hr [3] | other results
NCCO [2-Aminoethanol] | 1.30 | 1.12 | 1.15 | 0.46 | 1.06 | 1.03 | 1.05 | 1.07 | 1.30 | 1.24 | 1.07 | 1.65 | 2.01 | 2.38 | 2.50 | 2.74 | 2.88 | 3.01 | 3.12 | 3.41 | 590 nm absorbance normalized to zero hour (substrate use), 0 hr [1]: 1.00; Substrate use, 590 nm absorbance normalized to zero hour, 0 hr (Control (uninfected) NHBE cells, Biolog PMM2, 0 hr): 1.00; 590 nm absorbance normalized to zero hour (substrate use), 0 hr [2]: 1.00; 590 nm absorbance normalized to zero hour (substrate use), 1 hr [2]: 1.65; 590 nm absorbance normalized to zero hour (substrate use), 2 hr [2]: 2.01; 590 nm absorbance normalized to zero hour (substrate use), 3 hr [2]: 2.38; 590 nm absorbance normalized to zero hour (substrate use), 4 hr [2]: 2.50; 590 nm absorbance normalized to zero hour (substrate use), 5 hr [2]: 2.74; 590 nm absorbance normalized to zero hour (substrate use), 6 hr [2]: 2.88; 590 nm absorbance normalized to zero hour (substrate use), 7 hr [2]: 3.01; 590 nm absorbance normalized to zero hour (substrate use), 8 hr [2]: 3.12; 590 nm absorbance normalized to zero hour (substrate use), 9 hr [2]: 3.41; 590 nm absorbance normalized to zero hour (substrate use), 10 hr [2]: 3.22; 590 nm absorbance normalized to zero hour (substrate use), 11 hr [2]: 3.78; 590 nm absorbance normalized to zero hour (substrate use), 0 hr [3]: 1.00; 590 nm absorbance normalized to zero hour (substrate use), 10 hr [3]: 3.22; 590 nm absorbance normalized to zero hour (substrate use), 11 hr [3]: 3.78
CC(=O)C(C)O (stereo not shown) [3-Hydroxy 2-Butanone] | 1.49 | 1.64 | 1.71 | 0.48 | 1.86 | 7.44 | 7.39 | 2.14 | 1.49 | 2.01 | 1.80 | 1.24 | 1.65 | 2.42 | 2.37 | 2.39 | 2.28 | 2.37 | 2.01 | 2.18 | 590 nm absorbance normalized to zero hour (substrate use), 2 hr [1]: 1.75; 590 nm absorbance normalized to zero hour (substrate use), 1 hr [4]: 1.24; 590 nm absorbance normalized to zero hour (substrate use), 2 hr [4]: 1.65; 590 nm absorbance normalized to zero hour (substrate use), 3 hr [4]: 2.42; 590 nm absorbance normalized to zero hour (substrate use), 4 hr [4]: 2.37; 590 nm absorbance normalized to zero hour (substrate use), 5 hr [4]: 2.39; 590 nm absorbance normalized to zero hour (substrate use), 6 hr [4]: 2.28; 590 nm absorbance normalized to zero hour (substrate use), 7 hr [4]: 2.37; 590 nm absorbance normalized to zero hour (substrate use), 8 hr [4]: 2.01; 590 nm absorbance normalized to zero hour (substrate use), 9 hr [4]: 2.18; 590 nm absorbance normalized to zero hour (substrate use), 10 hr [4]: 2.16; 590 nm absorbance normalized to zero hour (substrate use), 11 hr [4]: 2.35; 590 nm absorbance normalized to zero hour (substrate use), 10 hr [3]: 2.16; 590 nm absorbance normalized to zero hour (substrate use), 11 hr [3]: 2.35
CC(=O)CC(=O)O [Acetoacetic Acid] | 1.24 | 2.22 | 2.13 | 0.39 | 1.52 | 1.66 | 1.49 | 2.20 | 1.24 | 2.15 | 1.53 | 1.26 | 1.40 | 1.48 | 1.54 | 1.64 | 1.67 | 1.71 | 1.74 | 1.81 | 590 nm absorbance normalized to zero hour (substrate use), 2 hr [1]: 1.37; 590 nm absorbance normalized to zero hour (substrate use), 1 hr [2]: 1.26; 590 nm absorbance normalized to zero hour (substrate use), 2 hr [2]: 1.40; 590 nm absorbance normalized to zero hour (substrate use), 3 hr [2]: 1.48; 590 nm absorbance normalized to zero hour (substrate use), 4 hr [2]: 1.54; 590 nm absorbance normalized to zero hour (substrate use), 5 hr [2]: 1.64; 590 nm absorbance normalized to zero hour (substrate use), 6 hr [2]: 1.67; 590 nm absorbance normalized to zero hour (substrate use), 7 hr [2]: 1.71; 590 nm absorbance normalized to zero hour (substrate use), 8 hr [2]: 1.74; 590 nm absorbance normalized to zero hour (substrate use), 9 hr [2]: 1.81; 590 nm absorbance normalized to zero hour (substrate use), 10 hr [2]: 1.74; 590 nm absorbance normalized to zero hour (substrate use), 11 hr [2]: 1.81; 590 nm absorbance normalized to zero hour (substrate use), 10 hr [3]: 1.74; 590 nm absorbance normalized to zero hour (substrate use), 11 hr [3]: 1.81
Nc1ncnc2c1ncn2[C@@H]1O[C@H](CO)[C@@H](O)[C@H]1O [Adenosine] | 2.85 | 1.67 | 1.86 | 2.50 | 3.10 | 3.78 | 3.46 | 3.32 | 2.85 | 2.21 | 2.97 | 1.39 | 1.23 | 1.60 | 1.77 | 1.96 | 2.16 | 2.38 | 2.56 | 2.88 | 590 nm absorbance normalized to zero hour (substrate use), 2 hr [1]: 1.34; 590 nm absorbance normalized to zero hour (substrate use), 1 hr [4]: 1.39; 590 nm absorbance normalized to zero hour (substrate use), 2 hr [4]: 1.23; 590 nm absorbance normalized to zero hour (substrate use), 3 hr [4]: 1.60; 590 nm absorbance normalized to zero hour (substrate use), 4 hr [4]: 1.77; 590 nm absorbance normalized to zero hour (substrate use), 5 hr [4]: 1.96; 590 nm absorbance normalized to zero hour (substrate use), 6 hr [4]: 2.16; 590 nm absorbance normalized to zero hour (substrate use), 7 hr [4]: 2.38; 590 nm absorbance normalized to zero hour (substrate use), 8 hr [4]: 2.56; 590 nm absorbance normalized to zero hour (substrate use), 9 hr [4]: 2.88; 590 nm absorbance normalized to zero hour (substrate use), 10 hr [4]: 2.56; 590 nm absorbance normalized to zero hour (substrate use), 11 hr [4]: 2.60; 590 nm absorbance normalized to zero hour (substrate use), 10 hr [3]: 2.56; 590 nm absorbance normalized to zero hour (substrate use), 11 hr [3]: 2.60
